Laboratory results published in patent US10168342B2, “Lipid probes and uses thereof” (THE SCRIPPS RESEARCH INSTITUTE, priority 2015, dated 2019).
Where two headings read alike, the source gives them in different places.

Assays:
[1] = target: AEA-DA lipid probe targets in Neuro2a cells (Mus musculus, UniProt Q64310)
[2] = target: T1, AEA-DA lipid probe targets in Neuro2a cells (Mus musculus, UniProt Q9CY50)
T1 sequence (Q9CY50 22-286): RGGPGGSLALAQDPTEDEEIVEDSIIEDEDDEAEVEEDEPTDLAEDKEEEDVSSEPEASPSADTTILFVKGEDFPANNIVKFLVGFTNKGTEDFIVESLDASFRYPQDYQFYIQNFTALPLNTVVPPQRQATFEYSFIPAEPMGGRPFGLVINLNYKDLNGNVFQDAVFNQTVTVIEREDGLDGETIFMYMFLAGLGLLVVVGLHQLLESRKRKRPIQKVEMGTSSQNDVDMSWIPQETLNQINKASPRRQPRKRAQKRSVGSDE

[3] = target: T2, AEA-DA lipid probe targets in Neuro2a cells (Mus musculus, UniProt P52825)
T2 sequence (P52825 26-658): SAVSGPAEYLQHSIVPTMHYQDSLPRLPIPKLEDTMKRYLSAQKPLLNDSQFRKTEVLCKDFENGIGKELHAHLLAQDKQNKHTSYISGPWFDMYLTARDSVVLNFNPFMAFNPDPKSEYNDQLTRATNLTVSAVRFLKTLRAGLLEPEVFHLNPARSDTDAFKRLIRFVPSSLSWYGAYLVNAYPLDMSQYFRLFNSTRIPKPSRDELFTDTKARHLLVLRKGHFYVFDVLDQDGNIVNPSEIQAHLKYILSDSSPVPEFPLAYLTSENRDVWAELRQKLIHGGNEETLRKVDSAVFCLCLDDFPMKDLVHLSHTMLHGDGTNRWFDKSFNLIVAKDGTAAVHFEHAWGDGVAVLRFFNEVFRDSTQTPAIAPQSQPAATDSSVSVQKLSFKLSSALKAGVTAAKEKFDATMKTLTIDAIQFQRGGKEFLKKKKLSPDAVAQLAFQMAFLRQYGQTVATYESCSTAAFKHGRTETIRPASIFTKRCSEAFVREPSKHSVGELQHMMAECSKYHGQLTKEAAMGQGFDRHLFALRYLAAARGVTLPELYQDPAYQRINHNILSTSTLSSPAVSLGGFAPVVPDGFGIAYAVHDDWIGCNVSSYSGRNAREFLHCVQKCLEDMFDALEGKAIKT

[4] = target: T3, AEA-DA lipid probe targets in Neuro2a cells (Mus musculus, UniProt Q02819)
T3 sequence (Q02819 26-459): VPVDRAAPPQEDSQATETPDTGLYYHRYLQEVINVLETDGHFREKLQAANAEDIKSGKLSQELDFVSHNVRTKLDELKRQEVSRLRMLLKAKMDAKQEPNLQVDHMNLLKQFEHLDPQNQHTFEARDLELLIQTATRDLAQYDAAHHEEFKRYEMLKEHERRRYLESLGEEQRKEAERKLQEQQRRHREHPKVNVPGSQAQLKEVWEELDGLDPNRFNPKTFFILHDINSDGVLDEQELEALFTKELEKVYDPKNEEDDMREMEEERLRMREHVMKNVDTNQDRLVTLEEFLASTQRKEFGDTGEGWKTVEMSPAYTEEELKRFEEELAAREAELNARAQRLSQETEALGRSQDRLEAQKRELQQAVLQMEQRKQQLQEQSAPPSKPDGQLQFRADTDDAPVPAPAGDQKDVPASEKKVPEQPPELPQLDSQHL

[5] = target: T4, AEA-DA lipid probe targets in Neuro2a cells (Mus musculus, UniProt O08749)
T4 sequence (O08749 36-509): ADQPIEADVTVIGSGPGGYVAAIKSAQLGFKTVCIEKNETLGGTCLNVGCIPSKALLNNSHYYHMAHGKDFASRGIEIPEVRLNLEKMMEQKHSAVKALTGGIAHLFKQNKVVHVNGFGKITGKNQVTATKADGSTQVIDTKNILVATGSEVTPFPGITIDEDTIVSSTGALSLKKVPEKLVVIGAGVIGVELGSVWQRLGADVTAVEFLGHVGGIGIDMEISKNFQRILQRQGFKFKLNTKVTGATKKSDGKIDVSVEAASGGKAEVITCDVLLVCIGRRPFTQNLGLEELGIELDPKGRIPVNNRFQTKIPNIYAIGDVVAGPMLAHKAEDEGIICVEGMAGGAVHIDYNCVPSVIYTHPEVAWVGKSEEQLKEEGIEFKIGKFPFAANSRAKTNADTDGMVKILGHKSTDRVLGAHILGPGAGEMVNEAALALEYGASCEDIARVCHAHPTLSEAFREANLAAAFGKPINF

[6] = target: AEA-DA lipid probe targets in Neuro2a cells (Mus musculus, UniProt P62814)
[7] = target: T5, AEA-DA lipid probe targets in Neuro2a cells (Mus musculus, UniProt Q8BJ03); settings: protein Cox15, Neuro2a cells
T5 sequence (Q8BJ03 1-413): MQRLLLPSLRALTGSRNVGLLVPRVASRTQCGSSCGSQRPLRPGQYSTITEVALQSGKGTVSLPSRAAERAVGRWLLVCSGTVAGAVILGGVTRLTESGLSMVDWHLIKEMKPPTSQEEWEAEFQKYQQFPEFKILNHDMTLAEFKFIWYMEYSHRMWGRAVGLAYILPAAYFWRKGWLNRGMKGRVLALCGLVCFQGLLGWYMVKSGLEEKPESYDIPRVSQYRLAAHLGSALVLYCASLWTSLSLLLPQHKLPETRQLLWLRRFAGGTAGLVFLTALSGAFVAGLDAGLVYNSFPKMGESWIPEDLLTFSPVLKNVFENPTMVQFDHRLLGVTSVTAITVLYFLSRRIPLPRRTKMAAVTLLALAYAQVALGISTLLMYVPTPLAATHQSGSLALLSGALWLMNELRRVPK

[8] = target: AEA-DA lipid probe targets in Neuro2a cells (Mus musculus, UniProt P52293)

Sequence of AEA-DA lipid probe targets in Neuro2a cells (Mus musculus, UniProt P62814) (P62814 whole entry): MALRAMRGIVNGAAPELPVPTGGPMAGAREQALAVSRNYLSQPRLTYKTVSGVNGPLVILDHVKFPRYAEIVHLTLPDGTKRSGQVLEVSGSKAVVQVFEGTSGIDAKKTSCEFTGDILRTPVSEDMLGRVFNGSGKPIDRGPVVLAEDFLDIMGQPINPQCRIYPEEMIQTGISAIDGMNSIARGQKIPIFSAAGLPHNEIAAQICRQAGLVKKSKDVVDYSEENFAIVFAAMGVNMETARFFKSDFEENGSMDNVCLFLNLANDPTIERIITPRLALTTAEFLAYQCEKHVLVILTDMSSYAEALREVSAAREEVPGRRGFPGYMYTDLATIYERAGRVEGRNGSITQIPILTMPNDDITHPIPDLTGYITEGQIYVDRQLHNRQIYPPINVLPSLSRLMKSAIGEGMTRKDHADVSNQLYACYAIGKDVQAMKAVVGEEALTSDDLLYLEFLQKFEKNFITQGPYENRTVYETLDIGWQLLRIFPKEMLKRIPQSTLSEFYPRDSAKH
Sequence of AEA-DA lipid probe targets in Neuro2a cells (Mus musculus, UniProt Q64310) (Q64310 whole entry): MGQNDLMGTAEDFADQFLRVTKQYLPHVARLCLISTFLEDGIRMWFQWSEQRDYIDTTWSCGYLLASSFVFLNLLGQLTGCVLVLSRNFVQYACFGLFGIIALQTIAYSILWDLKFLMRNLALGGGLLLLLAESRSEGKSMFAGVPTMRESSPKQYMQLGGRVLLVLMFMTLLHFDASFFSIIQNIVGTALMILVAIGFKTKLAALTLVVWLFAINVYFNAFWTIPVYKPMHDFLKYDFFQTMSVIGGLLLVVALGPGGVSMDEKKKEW

Which results are given for `CCCCC/C=C\C/C=C\C/C=C\C/C=C\CCCC(=O)NCCO` [AEA, anandamide, reference compound]?
SILAC ratio Surf4 ([1]; competitor 200 μM): 1.4; SILAC ratio, Ssr1 ([2]; competitor 200 μM): 1.9; SILAC ratio, Cpt2 ([3]; competitor 200 μM): 1.1; SILAC ratio, Nucb1 ([4]; competitor 200 μM): 1.5; SILAC ratio Dld ([5]; competitor 200 μM): 1.1; SILAC ratio Atp6v1b2 ([6]; competitor 200 μM): 1.1; SILAC ratio (AEA-DA competition) ([7]; competitor 200 μM): 1.0; SILAC ratio Kpna2 ([8]; competitor 200 μM): 1.5

Which results are given for `O=C(/C=C/c1cccnc1)NCCCCC1CCN(C(=O)c2ccccc2)CC1` [FK-866, reference compound]?
SILAC ratio Surf4 ([1]; competitor 25 μM): 1.2; SILAC ratio, Ssr1 ([2]; competitor 25 μM): 1.3; SILAC ratio, Cpt2 ([3]; competitor 25 μM): 3.1; interaction with NUCB1 protein ([4]; FIG. 16I and Table 4): did not interact; SILAC ratio, Nucb1 ([4]; competitor 25 μM): 1.2; SILAC ratio Dld ([5]; competitor 25 μM): 1.1; SILAC ratio Atp6v1b2 ([6]; competitor 25 μM): 1.6; SILAC ratio (AEA-DA competition) ([7]; competitor 25 μM): 0.9; SILAC ratio Kpna2 ([8]; competitor 25 μM): 1.2

Which results are given for `CN1CCN(C(=O)c2c(-c3ccccc3)c3cc([N+](=O)[O-])ccc3n2C)CC1` [KML110, (1-Methyl-5-nitro-3-phenyl-1H-indol-2-yl)(4-methylpiperazin-1-yl)methanone]?
SILAC ratio Surf4 ([1]; competitor 25 μM): 1.4; SILAC ratio, Ssr1 ([2]; competitor 25 μM): 1.7; SILAC ratio, Cpt2 ([3]; competitor 25 μM): 1.5; SILAC ratio, Nucb1 ([4]; competitor 25 μM): 3.4; SILAC ratio Dld ([5]; competitor 25 μM): 1.3; SILAC ratio Atp6v1b2 ([6]; competitor 25 μM): 1.2; SILAC ratio (AEA-DA competition) ([7]; competitor 25 μM): 1.1; SILAC ratio Kpna2 ([8]; competitor 25 μM): 1.2

Which results are given for `CN1CCN(C(=O)c2[nH]c3ccc([N+](=O)[O-])cc3c2-c2ccccc2)CC1` [MJN228, (4-Methylpiperazin-1-yl)(5-nitro-3-phenyl-1H-indol-2-yl)methanone]?
SILAC ratio Surf4 ([1]; competitor 10 μM): 1.3; SILAC ratio Surf4 ([1]; competitor 25 μM): 1.4; SILAC ratio Surf4 ([1]; competitor 50 μM): 1.7; SILAC ratio Surf4 ([1]; competitor 100 μM): 2.0; SILAC ratio, Ssr1 ([2]; competitor 10 μM): 1.3; SILAC ratio, Ssr1 ([2]; competitor 25 μM): 1.7; SILAC ratio, Ssr1 ([2]; competitor 50 μM): 1.8; SILAC ratio, Ssr1 ([2]; competitor 100 μM): 3.0; SILAC ratio, Cpt2 ([3]; competitor 10 μM): 1.3; SILAC ratio, Cpt2 ([3]; competitor 25 μM): 1.7; SILAC ratio, Cpt2 ([3]; competitor 50 μM): 2.7; SILAC ratio, Cpt2 ([3]; competitor 100 μM): 5.5; concentration at which lipid probe binding to NUCB1 is inhibited (as low as) ([4]; Neuro2a cells, AEA-DA 5 μM): 10 µM; concentration of near-maximal inhibition of lipid probe binding to NUCB1 ([4]; Neuro2a cells, AEA-DA 5 μM): ~25 µM; SILAC ratio, Nucb1 ([4]; competitor 10 μM): 3.1; SILAC ratio, Nucb1 ([4]; competitor 25 μM): 4.7; SILAC ratio, Nucb1 ([4]; competitor 50 μM): 5.6; SILAC ratio, Nucb1 ([4]; competitor 100 μM): 6.2; SILAC ratio Dld ([5]; competitor 10 μM): 1.2; SILAC ratio Dld ([5]; competitor 25 μM): 1.2; SILAC ratio Dld ([5]; competitor 50 μM): 1.2; SILAC ratio Dld ([5]; competitor 100 μM): 1.1; SILAC ratio Atp6v1b2 ([6]; competitor 10 μM): 1.2; SILAC ratio Atp6v1b2 ([6]; competitor 25 μM): 1.1; SILAC ratio Atp6v1b2 ([6]; competitor 50 μM): 0.9; SILAC ratio (AEA-DA competition) ([7]; competitor 10 μM): 0.8; SILAC ratio (AEA-DA competition) ([7]; competitor 25 μM): 1.0; SILAC ratio (AEA-DA competition) ([7]; competitor 50 μM): 0.7; SILAC ratio (AEA-DA competition) ([7]; competitor 100 μM): 0.6; SILAC ratio Kpna2 ([8]; competitor 10 μM): 1.3; SILAC ratio Kpna2 ([8]; competitor 25 μM): 1.2; SILAC ratio Kpna2 ([8]; competitor 50 μM): 0.9; SILAC ratio Kpna2 ([8]; competitor 100 μM): 1.3

How did the “SILAC ratio Surf4” value ([1]; competitor 25 μM) turn out when `C=CCN(C)CCCCCCOc1ccc(C(=O)c2ccc(Br)cc2)c(F)c1` [Ro 48-8071, reference compound] was run?
Its value is 1.1.

And the “SILAC ratio, Ssr1” value ([2]; competitor 25 μM)?
Its value is 1.3.

What about the “SILAC ratio, Cpt2” value ([3]; competitor 25 μM) of the same compound?
The value was 2.1.

And the “SILAC ratio, Nucb1” value ([4]; competitor 25 μM)?
The value was 0.9.

What about the “SILAC ratio Dld” value ([5]; competitor 25 μM) of the same compound?
Its value is 0.8.

What about the “SILAC ratio Atp6v1b2” value ([6]; competitor 25 μM) of the same compound?
Its value is 0.6.

What about the “SILAC ratio (AEA-DA competition)” value ([7]; competitor 25 μM) of the same compound?
Its value is 0.8.

What about the “SILAC ratio Kpna2” value ([8]; competitor 25 μM) of the same compound?
Its value is 0.9.
